# Where two headings read alike, the source gives them in different places.
# How the values were obtained:
# [1] = biological target: T1, human CD40-CD40L (Homo sapiens, UniProt P29965); experiment: Cell-free ELISA-type CD40-CD40L binding inhibition assay
# T1 construct: purchased Enzo Life Sciences (San Diego, Calif.)
# T1 sequence (P29965 116-261 limits assumed): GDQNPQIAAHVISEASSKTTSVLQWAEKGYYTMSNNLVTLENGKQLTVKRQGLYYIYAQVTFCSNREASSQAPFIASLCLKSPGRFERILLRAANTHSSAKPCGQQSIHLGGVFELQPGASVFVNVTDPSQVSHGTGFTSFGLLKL
# Procedure: Compounds according to the disclosure were assessed for their ability to inhibit the binding of tagged ligands to plate-bound receptors using ELISA-type 96-well plate-based cell-free assays as described in the literature (see Margolles-Clark et al, J Mol Med 87:1133-1143 (2009); Margolles-Clark et al., Chem Biol Drug Des 76:305-313 (2010); Song et al., Br J Pharmacol 171:4955-4969 (2014); and Ganesan et al., Biochem Pharmacol 81:810-818 (2011)).
# Recombinant receptors (hCD40:Fc, TNF-R1:Fc) and tagged ligands (hCD154, MegaCD40L, and TNF-α), were obtained from Enzo Life Sciences (San Diego, Calif.). Microtiter plates (Nunc F Maxisorp; 96-well) were coated overnight at 4° C. with 100 μL/well of Fc chimeric receptors diluted in PBS 7.2. This was followed by blocking with 200 μL/well of blocking solution (PBS 7.2, 0.05% Tween-20, 1% BSA) for 1 hour at room temperature. […] Either anti-FLAG-HRP or streptavidin-HRP conjugate was used to detect the bound FLAG-tagged or biotinylated ligand, respectively. Plates were washed three times before the addition of 120 μL/well of HRP substrate TMB (3, 3′, 5, 5′-tetramethylbenzidine) and kept in the dark for 15-30 min. The reaction was stopped using 30 μL 1M H2SO4, and the absorbance was read at 450 nm. Stock solutions of compounds at 10 mM in DMSO were used.
# (§1) Typical concentrations used were as follows—receptors: 0.3 μg/mL for CD40, TNF-R1, and RANK; 0.6 μg/mL for BAFF-R, OX40, and 4-1BB; and 2 μg/mL for EGF-R-ligands: 0.02 μg/mL for CD40L, TNFα, and RANKL; 0.2 μg/ml for BAFF, OX40L, 4-1BBL; and 0.3 μg/mL for EGF. Assays were done in duplicate or triplicate per plate and repeated at least three times; the averaged data were normalized and used for data fitting and analysis. Binding data were fitted using the standard log inhibitor versus response model in GraphPad Prism to determine the corresponding IC50 values.
# [2] = biological target: T2, OX40-OX40L (Homo sapiens, UniProt P23510+P43489); experiment: Cell-free ELISA-type OX40 binding inhibition assay; details: Table 2
# T2 sequence (P43489 29-214 limits assumed): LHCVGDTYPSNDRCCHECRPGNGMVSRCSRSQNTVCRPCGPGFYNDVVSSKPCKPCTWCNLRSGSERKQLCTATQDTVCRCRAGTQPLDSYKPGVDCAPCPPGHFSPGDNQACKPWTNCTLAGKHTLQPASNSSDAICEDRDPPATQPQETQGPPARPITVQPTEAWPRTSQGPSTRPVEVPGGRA
# T2 sequence (P23510 51-183 limits assumed): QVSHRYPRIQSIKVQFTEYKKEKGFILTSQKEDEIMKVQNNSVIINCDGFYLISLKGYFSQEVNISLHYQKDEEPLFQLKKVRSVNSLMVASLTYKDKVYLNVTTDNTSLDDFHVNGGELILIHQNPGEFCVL
# Procedure: as §1
# [3] = test system: CD40L-induced NF-κB activation in CD40 sensor cells (HEK Blue); experiment: Inhibition of CD40L-induced NF-κB activation in CD40 sensor cells (HEK-Blue); type: cell-based, human; details: CD40L 20 ng/mL, 18 h
# Source text: Activities of the compounds of the disclosure were confirmed in cell-based assays. As a first example, TNF-R1 and CD40 expressing sensor cells (HEK-Blue; InvivoGen, San Diego, Calif.) were used as described in the literature (see Song et al., Br J Pharmacol 171:4955-4969 (2014) and Cechin et al., Steroids 85:36-43 (2014)).
# Cells were maintained in DMEM at 80% confluence for each experiment. Cells were trypsinized and re-suspended in the same medium with 1% FBS and seeded on 96-well microtiter plates at a density of 1×10^5 cells/well in the absence and presence of various concentrations of compounds diluted in the same media. For ligand mediated stimulation, final concentrations of recombinant human TNFα (2 ng/mL) and CD40L (20 ng/mL) were maintained in the wells for this purpose. After 18-hour incubation at 37° C., 20 μL supernatant of each well were taken and added to another 96-well microtiter plate containing 180 μL/well of QUANTI-Blue (InvivoGen, CA). The level of SEAP was determined after 30-minute incubation at 37° C. by reading at 625 nm using a spectrophotometer. […] Data are average±SD (normalized to CD40L-activated cells alone) for n=4 independent experiments with duplicates for each condition.
# [4] = test system: TNFSF costimulatory interactions; details: literature; cited from earlier work
# [5] = test system: CD40L-induced proliferation of human CD19+ B cells; experiment: Inhibition of CD40L-induced human CD19+ B-cell proliferation (BrdU); type: cell-based
# Procedure: Because CD40 stimulation is an important signal for B cell proliferation, soluble CD40L can concentration-dependently induce the proliferation of human B cells.
# Inhibition of cell proliferation was determined in freshly isolated human CD19^+ B cells using the colorimetric cell proliferation ELISA BrdU kit from Roche Applied Science (Indianapolis, Ind.). B cells were isolated from the PBMC as follows. Briefly, cells were washed three times with medium (RPMI 1640) and incubated for 20 min at 4° C. with 20 μL/10^7 cells of anti-CD19 Microbeads (Miltenyi Biotech, Bergisch Gladbach, Germany), according to the MiniMacs protocol (Miltenyi Biotech). Cells were then purified using magnetic columns. […] Cells were cultured in 96 wells plates (100 μL/well) at a cell density of 2×10^5 cells/mL in IMDM medium supplemented with 5% FBS, 100 U/mL penicillin, streptomycin 100 μg/mL, insulin-transferrin-selenium-G (all materials from Invitrogen, San Diego, Calif.) and 10 […] (R&D Systems). […] After 48 h, BrdU labeling solution was added as recommended, and cells were cultivated for another 48 h. Detection of incorporated BrdU was carried out following the instructions of the ELISA BrdU kit.
# Data are average±SD for n=3 independent experiments with triplicates for each condition using a standard BrdU assay (Roche).
Compound,"IC50 ([1]; IC50 CD40, Table 2) [µM]",inhibition of human CD40-CD40L binding (in words) ([1]; cell-free binding),IC50 [2] [µM],activity of other small molecule inhibitors (in words) [4],also measured
Nc1ccc(C(=O)Nc2ccc(-c3ccc(C(=O)Nc4cccc5cccc(S(=O)(=O)O)c45)cc3)cc2)cc1 [Compound 21042],301,concentration-dependent inhibition,12.8,–,–
O=C(Nc1ccc(-c2ccc(C(=O)Nc3cccc4cccc(S(=O)(=O)O)c34)cc2)cc1)c1ccc2[nH]nnc2c1 [Compound 21080],1,concentration-dependent inhibition,26.3,–,–
COC(=O)c1cccc2c(NC(=O)c3ccc(-c4ccc(NC(=O)c5ccc([N+](=O)[O-])cc5)cc4)cc3)cccc12 [Compound 24541],–,–,6560,–,"IC50 ([1]; Table 2, read-out: IC50 CD40): 916 µM"
O=C(Nc1ccc(-c2ccc(C(=O)Nc3ccc(S(=O)(=O)O)c4ccccc34)cc2)cc1)c1ccc([N+](=O)[O-])cc1 [Compound 25041],2.3,concentration-dependent inhibition,7,–,–
"O=C(Nc1ccc2c(O)c(N=Nc3ccc(N=Nc4ccc(S(=O)(=O)[O-])cc4)cc3S(=O)(=O)[O-])c(S(=O)(=O)[O-])cc2c1)Nc1ccc2c(O)c(N=Nc3ccc(N=Nc4ccc(S(=O)(=O)[O-])cc4)cc3S(=O)(=O)[O-])c(S(=O)(=O)[O-])cc2c1.[Na+].[Na+].[Na+].[Na+].[Na+].[Na+] [DR80, direct red 80, reference compound]",–,–,–,active in the low μM range,"IC50 ([1]; cell-free binding, n=3 independent experiments, read-out: IC50, inhibition of the CD40-CD40L interaction): 2.26 µM; IC50 [3]: 42.7 µM"
"O=C([O-])C1=NN(c2ccc(S(=O)(=O)[O-])cc2)C(=O)C1N=Nc1ccc(S(=O)(=O)[O-])cc1.[Na+].[Na+].[Na+] (stereo not shown) [Tartrazine, reference compound]",–,inactive,–,–,inhibition of CD40L-induced human CD19+ B-cell proliferation (in words) [5]: no proliferation inhibiting activity
Nc1ccc2cc(S(=O)(=O)[O-])cc(O)c2c1N=Nc1ccc(-c2ccc(N=Nc3c(N)ccc4cc(S(=O)(=O)[O-])cc(O)c34)cc2)cc1.[Na+].[Na+] [chlorazol violet N],–,–,–,active in the low μM range,–
Cc1cc(S(=O)(=O)[O-])ccc1N=Nc1ccc(N=Nc2c(O)ccc3cccc(S(=O)(=O)[O-])c23)c(C)c1.[Na+].[Na+] [crocein scarlet 7B],–,–,–,active in the low μM range,–
mordant brown,–,–,–,active in the low μM range,–

# Source: US10562848B2, “Inhibitors of TNF superfamily costimulatory interactions and methods for uses of the same” (UNIVERSITY OF MIAMI, priority 2015, dated 2020)
